Experimental findings from ChEMBL document CHEMBL1255562, “6,7-Dihydroxy-4-phenylcoumarin as inhibitor of aldose reductase 2” (Bioorg Med Chem Lett, 2010) are described below.

Test [1] addresses Aldo-keto reductase family 1 member B1 (Homo sapiens, UniProt P15121). Briefly: Inhibition human recombinant […] by spectrophotometric analysis.
Test [2] can be described thus: Inhibition kidney aldose reductase 2 by spectrophotometric analysis.
Another test has as its target T1, Sorbitol dehydrogenase (Homo sapiens, UniProt Q00796).
T1 sequence (Q00796 whole entry): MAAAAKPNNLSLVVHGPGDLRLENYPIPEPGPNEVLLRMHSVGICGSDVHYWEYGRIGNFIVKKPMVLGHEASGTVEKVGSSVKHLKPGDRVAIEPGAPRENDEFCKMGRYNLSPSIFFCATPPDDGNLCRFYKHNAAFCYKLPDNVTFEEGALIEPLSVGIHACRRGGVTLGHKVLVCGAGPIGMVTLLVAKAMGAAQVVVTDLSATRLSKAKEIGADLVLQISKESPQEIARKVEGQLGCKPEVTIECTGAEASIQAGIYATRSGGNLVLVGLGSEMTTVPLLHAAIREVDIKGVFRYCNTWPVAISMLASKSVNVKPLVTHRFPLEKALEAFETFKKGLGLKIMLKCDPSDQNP
Nature of the test: Inhibition sorbitol dehydrogenase by spectrophotometric analysis.

The nature of test [3]: Selectivity index, ratio of IC50 for sorbitol dehydrogenase to IC50 for kidney aldose reductase 2.
A short description of test [4]: Selectivity index, ratio of IC50 for human recombinant […] to IC50 for kidney aldose reductase 2.
The species named for a further test is Rattus norvegicus. Nature of the test: Reduction of galactitol accumulation in Wistar rat lens after 24 hrs. The class given is functional, tissue-based. Conditions: Lens of camera-type eye.

Regarding `O=c1oc2ccccc2cc1O` [3-HYDROXYCOUMARIN], the values for the IC50 (in test [1]; in test [2]; against Sorbitol dehydrogenase) were 62 µM, 172 µM and 106 µM, respectively. In addition, the values for the Ratio IC50 in test [3] and in test [4] were 0.62 and 0.35, respectively.
Consider `CC(/C=C1\SC(=S)N(CC(=O)O)C1=O)=C\c1ccccc1`, for which the values for the IC50 (in test [2]; at Sorbitol dehydrogenase) were 1.4 µM and 67.7 µM, respectively.
On to `O=c1ccc2cc(O)ccc2o1` [6-HYDROXYCOUMARIN], for which the IC50 – broadly, the concentration that inhibits the measured activity by half – in test [1] was 171 µM; in test [2] it was 156 µM; against Sorbitol dehydrogenase, greater than 400 µM. The Ratio IC50 in test [3] is greater than 2.56; in test [4], 1.1.
As to `O=c1ccc2ccccc2o1` [COUMARIN], the IC50 in test [1] was greater than 500 µM; in test [2], greater than 400 µM; at Sorbitol dehydrogenase it was greater than 400 µM.
Consider `O=c1ccc2ccc(O)cc2o1` [UMBELLIFERONE], for which the IC50 in test [1] came out at 22.9 µM; in test [2], 85.7 µM; against Sorbitol dehydrogenase, 120 µM. For the same compound, the Ratio IC50 in test [3] amounted to 1.4; in test [4] it was 0.27.
As to `COc1ccc2ccc(=O)oc2c1` [HERNIARIN], the IC50 against Sorbitol dehydrogenase came out at 124 µM.
Turning to `O=C(O)Cc1cc(=O)oc2cc(O)ccc12`, the IC50 in test [1] is 20.8 µM; in test [2] it was 142 µM; at Sorbitol dehydrogenase, 163 µM. The Ratio IC50 in test [3] amounted to 1.15; in test [4], 0.15.
In the case of `O=c1cc(-c2ccccc2)c2ccc(O)cc2o1`, the IC50 in test [1] was 2.4 µM; in test [2], 36.7 µM; on Sorbitol dehydrogenase it was 70.7 µM. The Ratio IC50 stood at 1.93 in test [3] and 0.07 in test [4].
As for `O=c1cc(-c2ccccc2)c2cc(O)c(O)cc2o1`, the values for the half-maximal inhibitory concentration (IC50) (in test [1]; in test [2]; against Sorbitol dehydrogenase) were 66.3 µM, 9.6 µM and 288 µM, respectively. The Ratio IC50 in test [3] worked out at 30; in test [4], 6.9. Further, in the test listed under Rattus norvegicus, the Activity result is “Dose-dependent effect”.
`Cc1cc(=O)oc2cc(O)ccc12` [HYMECROMONE]: the IC50 in test [1] came to 24.5 µM; in test [2] it was 89.9 µM; against Sorbitol dehydrogenase, 153 µM. In addition, the Ratio IC50 in test [3] came to 1.7; in test [4], 0.27.
Regarding `O=c1cc(O)c2ccccc2o1` [4-HYDROXYCOUMARINS], the IC50 in test [1] was greater than 400 µM; in test [2] it was 40.5 µM; on Sorbitol dehydrogenase, greater than 400 µM. Moreover, the Ratio IC50 in test [3] and in test [4] was greater than 9.88 each time.
For `COc1cc2oc(=O)ccc2cc1O` [ISOSCOPOLETIN], the IC50 was 56.2 µM in test [1], 101 µM in test [2] and greater than 250 µM at Sorbitol dehydrogenase. In addition, the Ratio IC50 is greater than 2.48 in test [3] and 0.56 in test [4].
As to `O=C(O)Cc1cc(=O)oc2cc(O)c(O)cc12`, the concentration for half-maximal inhibition (IC50) in test [1] was 63.3 µM; in test [2] it was 53.4 µM; on Sorbitol dehydrogenase, 335 µM. The figures for the Ratio IC50 in test [3] and in test [4] were 6.27 and 1.19, respectively.
In the same order, the values of `Cc1cc(=O)oc2cc(O)c(O)cc12` [4-METHYLESCULETIN] are 64.4 µM, 38.3 µM, 212 µM, 5.54 and 1.68.
Turning to `O=c1ccc2cc(O)c(O)cc2o1` [ESCULETIN], the figures for the IC50 (in test [1]; in test [2]; at Sorbitol dehydrogenase) were 67.2 µM, 36.5 µM and 82.9 µM, respectively. Also, the results for the Ratio IC50 in test [3] and in test [4] were 2.27 and 1.84, respectively.
As to `COc1cc2ccc(=O)oc2cc1O` [SCOPOLETIN], the figures for the half-inhibitory concentration (IC50) (in test [1]; in test [2]; against Sorbitol dehydrogenase) were 74.4 µM, 46 µM and 137 µM, respectively. Besides, the Ratio IC50 was 2.98 in test [3] and 1.62 in test [4].
